# Source: ChEMBL document CHEMBL4152353, “Synthesis of DNA interactive C3-trans-cinnamide linked β-carboline conjugates as potential cytotoxic and DNA topoisomerase I inhibitors” (Bioorg Med Chem, 2018)
# Calls of active or inactive are those of the source. The calls are words filed in the database; no cut-off is given here.
# How the values were obtained:
# MCF7 [1] = experiment: Cell cycle arrest in human MCF7 cells assessed as accumulation at subG1 phase at 1 uM after 48 hrs by propidium iodide staining based flow cytometry (reference value: 3.04%); assay type: functional
# Calf thymus DNA [2] = experiment: Binding affinity to calf thymus DNA assessed as hypochromic shift at 50 uM by UV-Vis absorption spectrophotometric method; assay type: nucleic-acid assay; conditions: Bos taurus
# Topoisomerase I = target: T1, Topoisomerase I (Bos taurus, UniProt Q2HPH0); experiment: Inhibition of calf thymus topoisomerase 1-mediated relaxation of supercoiled pBR322 DNA measured after 30 mins by agarose gel electrophoresis method
# T1 sequence (Q2HPH0 whole entry): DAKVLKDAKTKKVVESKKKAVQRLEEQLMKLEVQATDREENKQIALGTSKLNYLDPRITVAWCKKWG
# HeLa = experiment: Cytotoxicity against human HeLa cells after 48 hrs by MTT assay; assay type: functional, cell-based
# MCF7 [3] = experiment: Cell cycle arrest in human MCF7 cells assessed as accumulation at G2/M-phase at 0.5 uM after 48 hrs by propidium iodide staining based flow cytometry (reference value: 33.65%); assay type: functional
# NIH3T3 [4] = experiment: Cytotoxicity against mouse NIH/3T3 cells after 48 hrs by MTT assay; assay type: cell-based; conditions: NIH3T3, 48 h
# Calf thymus DNA [5] = experiment: Binding affinity to calf thymus DNA assessed as maximum absorption peak at 50 uM by UV-Vis absorption spectrophotometric method; assay type: nucleic-acid assay; conditions: Bos taurus
# MCF7 [6] = experiment: Induction of apoptosis in human MCF7 cells assessed as DNA fragmentation at 1 uM after 48 hrs by Hoechst 33342 staining based confocal microscopic analysis; assay type: functional, cell-based
# MCF7 [7] = experiment: Induction of apoptosis in human MCF7 cells assessed as early apoptotic cells at 0.5 uM after 48 hrs by Annexin-V-FITC/propidium iodide staining based flow cytometry (reference value: 0.09%); assay type: functional
# MCF7 [8] = experiment: Induction of apoptosis in human MCF7 cells assessed as viable cells at 1 uM after 48 hrs by Annexin-V-FITC/propidium iodide staining based flow cytometry (reference value: 96.18%); assay type: functional; conditions: MCF7, 48 h, read-out: Activity
# Calf thymus DNA [9] = experiment: Binding affinity to calf thymus DNA at 50 uM by UV-Vis absorption spectrophotometric method; assay type: nucleic-acid assay; conditions: Bos taurus
# MCF7 [10] = experiment: Cytotoxicity against human MCF7 cells assessed as cell death at 1 uM after 24 hrs by propidium iodide/Hoechst 33342 staining based fluorescence microscopic analysis; assay type: functional
# MCF7 [11] = experiment: Cell cycle arrest in human MCF7 cells assessed as accumulation at G1 phase at 1 uM after 48 hrs by propidium iodide staining based flow cytometry (reference value: 45.98%); assay type: functional
# Calf thymus DNA [12] = experiment: Binding affinity to calf thymus DNA assessed as increase in viscosity at 15 uM by viscometric method; assay type: nucleic-acid assay; conditions: Bos taurus
# MCF7 [13] = experiment: Cell cycle arrest in human MCF7 cells assessed as accumulation at S-phase at 0.5 uM after 48 hrs by propidium iodide staining based flow cytometry (reference value: 15.64%); assay type: functional
# MCF7 [14] = experiment: Induction of apoptosis in human MCF7 cells assessed as early apoptotic cells at 1 uM after 48 hrs by Annexin-V-FITC/propidium iodide staining based flow cytometry (reference value: 0.09%); assay type: functional
# MCF7 [15] = experiment: Induction of apoptosis in human MCF7 cells assessed as increase in number of wrinkled cells at 1 uM after 48 hrs by Hoechst 33342 staining based confocal microscopic analysis; assay type: functional, cell-based
# NIH3T3 [16] = experiment: Cytotoxicity against mouse NIH/3T3 cells assessed as cell death at 1 uM after 24 hrs by propidium iodide/Hoechst 33342 staining based fluorescence microscopic analysis; conditions: nih3t3, 24 h
# MCF7 [17] = experiment: Induction of apoptosis in human MCF7 cells assessed as viable cells at 0.5 uM after 48 hrs by Annexin-V-FITC/propidium iodide staining based flow cytometry (reference value: 96.18%); assay type: functional; conditions: MCF7, 48 h, read-out: Activity
# Calf thymus DNA [18] = experiment: Binding affinity to calf thymus DNA assessed as fluorescence quenching at 10 uM by spectrofluorimetric method; assay type: nucleic-acid assay; conditions: Bos taurus
# MCF7 [19] = experiment: Cell cycle arrest in human MCF7 cells assessed as accumulation at G1 phase at 0.5 uM after 48 hrs by propidium iodide staining based flow cytometry (reference value: 45.98%); assay type: functional
# MCF7 [20] = experiment: Induction of apoptosis in human MCF7 cells assessed as necrotic cells at 0.5 uM after 48 hrs by Annexin-V-FITC/propidium iodide staining based flow cytometry (reference value: 3.67%); assay type: functional
# A549 = experiment: Cytotoxicity against human A549 cells after 48 hrs by MTT assay; assay type: functional, cell-based; conditions: A549, 48 h
# MCF7 [21] = experiment: Cytotoxicity against human MCF7 cells after 48 hrs by MTT assay; assay type: functional, cell-based; conditions: MCF7, 48 h
# MCF7 [22] = experiment: Cell cycle arrest in human MCF7 cells assessed as accumulation at S-phase at 1 uM after 48 hrs by propidium iodide staining based flow cytometry (reference value: 15.64%); assay type: functional
# Calf thymus DNA [23] = experiment: Binding affinity to calf thymus DNA assessed as DNA winding at 1:1 to 1:2 ratio of DNA to compound by circular dichroism analysis; assay type: nucleic-acid assay; conditions: Bos taurus
# MCF7 [24] = experiment: Cell cycle arrest in human MCF7 cells assessed as accumulation at G2/M-phase at 1 uM after 48 hrs by propidium iodide staining based flow cytometry (reference value: 33.65%); assay type: functional
# MCF7 [25] = experiment: Cell cycle arrest in human MCF7 cells assessed as accumulation at subG1 phase at 0.5 uM after 48 hrs by propidium iodide staining based flow cytometry (reference value: 3.04%); assay type: functional
# MCF7 [26] = experiment: Induction of apoptosis in human MCF7 cells assessed as late apoptotic cells at 1 uM after 48 hrs by Annexin-V-FITC/propidium iodide staining based flow cytometry (reference value: 0.06%); assay type: functional
# MCF7 [27] = experiment: Induction of apoptosis in human MCF7 cells assessed as necrotic cells at 1 uM after 48 hrs by Annexin-V-FITC/propidium iodide staining based flow cytometry (reference value: 3.67%); assay type: functional
# B16 = experiment: Cytotoxicity against mouse B16 cells after 48 hrs by MTT assay; assay type: functional, cell-based; conditions: B16, 48 h
# MCF7 [28] = experiment: Induction of apoptosis in human MCF7 cells assessed as late apoptotic cells at 0.5 uM after 48 hrs by Annexin-V-FITC/propidium iodide staining based flow cytometry (reference value: 0.06%); assay type: functional
Activity (Calf thymus DNA [2]),IC50 (Topoisomerase I),Activity (Calf thymus DNA [5]),K (Calf thymus DNA [9]),Activity (Calf thymus DNA [12]),Activity (Calf thymus DNA [18]),Compound,Activity (MCF7 [1]),IC50 (HeLa),Activity (MCF7 [3]),IC50 (NIH3T3 [4]),Activity (MCF7 [6]),Activity (MCF7 [7]),viability at 1 µM (MCF7 [8]),Activity (MCF7 [10]),Activity (MCF7 [11]),Activity (MCF7 [13]),Activity (MCF7 [14]),Activity (MCF7 [15]),Activity (NIH3T3 [16]),viability at 0.5 µM (MCF7 [17]),also measured
6 nm,0.014 µM,287 to 369 nm,3 ×10⁵ /M,Active,Active,COc1ccc(-c2nc(CNC(=O)/C=C/c3ccc(Cl)cc3)cc3c2[nH]c2ccccc23)cc1,2.97%,0.0215 µM,33.1%,0.0383 µM,Active,6.65%,84.8%,Active,42.38%,17.6%,6.69%,Active,Non-Toxic,91.2%,Activity (MCF7 [19]): 42.32%; Activity (MCF7 [20]): 1.29%; IC50 (A549): 0.0189 µM; IC50 (MCF7 [21]): 0.0141 µM; Activity (MCF7 [22]): 16.72%; Activity (Calf thymus DNA [23]): Active; Activity (MCF7 [24]): 37.42%; Activity (MCF7 [25]): 5.4%; Activity (MCF7 [26]): 2.43%; Activity (MCF7 [27]): 6.04%; IC50 (B16): 0.0166 µM; Activity (MCF7 [28]): 0.81%
inactive,0.014 µM,287 to 369 nm,1 ×10³ /M,Active,Active,COc1ccc(-c2nc(CNC(=O)/C=C/c3cccc(O)c3)cc3c2[nH]c2ccccc23)cc1,4.32%,0.0223 µM,32.46%,0.0372 µM,Active,9.75%,77.3%,Active,40.12%,16.81%,9.46%,Active,Non-Toxic,81.3%,Activity (MCF7 [19]): 46.11%; Activity (MCF7 [20]): 6.45%; IC50 (A549): 0.0189 µM; IC50 (MCF7 [21]): 0.0138 µM; Activity (MCF7 [22]): 16.29%; Activity (Calf thymus DNA [23]): Active; Activity (MCF7 [24]): 39.25%; Activity (MCF7 [25]): 4.61%; Activity (MCF7 [26]): 3.69%; Activity (MCF7 [27]): 9.55%; IC50 (B16): 0.0163 µM; Activity (MCF7 [28]): 2.5%
